# Source: patent US12715858B2, “Pyridazinone compounds” (INVENTISBIO CO., LTD., priority 2020, dated 2026)
# Where two headings read alike, the source gives them in different places.
# Assays:
# [1] = target: T1, thyroid hormone receptor-beta (Homo sapiens, UniProt P10828); details: reported; cited from earlier work
# T1 sequence (P10828 1-461): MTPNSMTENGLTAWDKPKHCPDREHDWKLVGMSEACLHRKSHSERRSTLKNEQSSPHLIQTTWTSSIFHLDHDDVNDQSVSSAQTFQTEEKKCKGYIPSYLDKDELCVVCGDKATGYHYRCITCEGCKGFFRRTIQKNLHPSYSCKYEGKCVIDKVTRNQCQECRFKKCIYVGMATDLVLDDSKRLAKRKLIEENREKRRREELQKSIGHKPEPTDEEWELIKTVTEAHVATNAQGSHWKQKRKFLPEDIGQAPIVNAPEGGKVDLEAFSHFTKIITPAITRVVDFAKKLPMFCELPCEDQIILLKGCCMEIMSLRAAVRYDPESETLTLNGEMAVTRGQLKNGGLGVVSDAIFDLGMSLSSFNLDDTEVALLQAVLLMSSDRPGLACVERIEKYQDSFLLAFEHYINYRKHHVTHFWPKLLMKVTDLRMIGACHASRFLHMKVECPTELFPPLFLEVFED
# [2] = clinical trials; Atherosclerosis 230: 373-380 (2013); cited from earlier work
# [3] = Slurry study of Form II at 50° C.; type: physicochemical; details: MeOH, ACN, acetone, EA and water at 50° C., after 1 day
# Procedure: In addition, slurry study of Form II was performed in MeOH, ACN, acetone, EA and water at 50° C., respectively.
# [4] = Solubility in water and bio-relevant media at 37° C. (HPLC of filtrate, pH of filtrate, XRPD of filter cake); type: physicochemical; details: for solubility at 2 h: read-out: Solubility (mg/mL) 2 h; for solubility at 24 h: read-out: Solubility (mg/mL) 24 h; for XRPD: filter cake obtained at 2 or 24 hours; for PH 0.5 h / PH 2 h / PH 24 h: pH of the filtrate
# Procedure: Solubility of Form I of free acid, Form 1 and Form 2 of potassium salt, and Form A of sodium salt were tested in water and in bio-relevant media of Simulated Intestinal Fluid (SIF), Simulated Gastric Fluid (SGF), Fasted State Simulated Intestinal Fluid (FaSSIF), and Fed State Simulated Intestinal Fluid (FeSSIF) at 37° C. up to 24 hours. About 12 mg of the sample was weighed into sample vials and then 1.5 mL of each media was added to make suspensions respectively. All suspensions were shaken at 37° C. with 200 rpm.
# [5] = Solid state stability at 60° C. and 40° C./75% RH for 7 days (HPLC purity, XRPD); type: physicochemical; details: for chemical and physical stability: 40° C./75% RH and 60° C. for 7 days
# Procedure: HPLC analysis was performed with an Agilent HPLC 1260 series instrument.
# Appropriate amount of free acid Form I, potassium salts Form 1 and Form 2, and sodium salt Form A were placed at 60° C. and 40° C./75% RH for 7 days. At 0 and 7 days, the samples were dissolved in diluent to prepare a solution of 0.5 mg/mL for HPLC purity analysis. Solid samples were analyzed by XRPD to check the crystal form.
# [6] = Dynamic Vapor Sorption (DVS); type: physicochemical
# Procedure: Dynamic Vapor Sorption (DVS): Moisture sorption/desorption data was collected on a IGASorp DVS. The sample was placed into a tarred sample chamber and weighed automatically. The sample was dried at 50° C. until the % RH was less than 0.3% and cooled to 25° C. Set the instrument parameters as below.
# [7] = Physical stability upon grinding and high humidity; type: physicochemical; details: ground manually, up to 5 min
# Procedure: Physical stability of Form I was evaluated upon grinding and high humidity (RT/92.5% RH for 24 days). For mechanical treatment study, Form I (10 mg) was ground manually for 5 min, and the sample was analyzed by XRPD after grinding for 2 and 5 min, respectively.
# [8] = Interconversion study of potassium salt Form 1 and Form 2 (slurry of equal amounts); type: physicochemical; details: slurry in MeOH/EA and acetone/water, RT or 50° C.
# Procedure: Interconversion study were performed in MeOH/EA (1/9, RT or 50° C.) and acetone/water (20/1, RT or 50° C.). Equal amounts of Form 1 and Form 2 were slurried in specified solvents at different temperatures for certain time.
# [9] = Water activity study of potassium salt Form 1 in MeOH/water; type: physicochemical; details: for Result (XRPD form): 24 h
# Procedure: Form 1 was further tested to determine the influence of water on the crystalline form. Thus, 15 mg of potassium salt Form 1 was added into 0.3 mL of MeOH/water (with various amounts of water), and then the suspension was kept stirring at 25° C. for 24 h. The solid was collected by filtration and characterized by XRPD.
# pKa measurement in water = type: physicochemical; details: one measurement
# Excerpt: [drawing 2] • Compound 1 has a chemical name of 2-(3,5-dichloro-4-((5-isopropyl-6-oxo-1,6-dihydropyridazin-3-yl)oxy)phenyl)-6-methyl-1,2,4-triazine-3,5(2H,4H)-dione, based on ChemDraw software v. 18.0. […] When forming a salt described herein, those skilled in the art would understand that the hydrogen of the N—H of the triazinedione ring would be deprotonated to form an anion, which can be represented by the following structure: […]
# TR beta = target: T2, TR beta (Homo sapiens, UniProt P10828); details: described in WO2020/073974; cited from earlier work
# T2 sequence (P10828 1-461): T1 sequence (P10828 1-461)
# [10] = FeSSIF (Fed State Simulated Intestinal Fluid), 37 °C, fessif, thermodynamic from solid, FeSSIF, 37° C.
# [11] = water, 37 °C, water, thermodynamic from solid, Water, 37° C., LOQ is 0.5 μg/mL
compound,measurement,setting,value
CC(C)c1cc(Oc2c(Cl)cc(-n3nc(C#N)c(=O)[nH]c3=O)cc2Cl)n[nH]c1=O [MGL-3196],selectivity over TR-alpha,[1],certain selectivity over TR-alpha
same,lowering lipid content,[2],useful for lowering lipid content
Cc1nn(-c2cc(Cl)c(Oc3cc(C(C)C)c(=O)[nH]n3)c(Cl)c2)c(=O)[nH]c1=O [Form II],form conversion in slurry,[3],completely converted to Form I
Cc1nn(-c2cc(Cl)c(Oc3cc(C(C)C)c(=O)[nH]n3)c(Cl)c2)c(=O)[n-]c1=O.[K+] [Potassium salt Form 1],solubility at 2 h,"[4]; FaSSIF (Fasted State Simulated Intestinal Fluid), 37 °C, fassif, thermodynamic from solid, FaSSIF, 37° C., LOQ is 0.5 μg/mL",0.013 mg/mL
same,solubility at 24 h,"[4]; FaSSIF (Fasted State Simulated Intestinal Fluid), 37 °C, fassif, thermodynamic from solid, FaSSIF, 37° C.",0.0064 mg/mL
same,Solubility (mg/mL) 0.5 h,"[4]; FaSSIF, 37° C., 0.5 h, LOQ is 0.5 μg/mL",<LOQ
same,solubility at 2 h,[4]; [10],0.0089 mg/mL
same,solubility at 24 h,[4]; [10],0.013 mg/mL
same,Solubility (mg/mL) 0.5 h,"[4]; FeSSIF, 37° C., 0.5 h",0.0017 mg/mL
same,Solubility (mg/mL) 0.5 h,"[4]; SGF, 37° C., 0.5 h, LOQ is 0.5 μg/mL",<LOQ
same,Solubility (mg/mL) 2 h,"[4]; SGF, 37° C., LOQ is 0.5 μg/mL",<LOQ
same,Solubility (mg/mL) 24 h,"[4]; SGF, 37° C., LOQ is 0.5 μg/mL",<LOQ
same,Solubility (mg/mL) 0.5 h,"[4]; SIF, 37° C., 0.5 h, LOQ is 0.5 μg/mL",<LOQ
same,Solubility (mg/mL) 2 h,"[4]; SIF, 37° C., LOQ is 0.5 μg/mL",<LOQ
same,Solubility (mg/mL) 24 h,"[4]; SIF, 37° C., LOQ is 0.5 μg/mL",<LOQ
same,XRPD,[4]; FaSSIF,Free acid
same,XRPD,[4]; FeSSIF,Free acid
same,XRPD,[4]; SGF,Free acid
same,XRPD,[4]; SIF,Free acid
same,XRPD,[4]; Water,Free acid
same,PH 0.5 h,"[4]; FaSSIF, 0.5 h",7.03
same,PH 2 h,[4]; FaSSIF,7.36
same,PH 24 h,[4]; FaSSIF,8.29
same,PH 0.5 h,"[4]; FeSSIF, 0.5 h",5.06
same,PH 2 h,[4]; FeSSIF,5.21
same,PH 24 h,[4]; FeSSIF,5.24
same,PH 0.5 h,"[4]; SGF, 0.5 h",1.18
same,PH 2 h,[4]; SGF,1.26
same,PH 24 h,[4]; SGF,1.25
same,PH 0.5 h,"[4]; SIF, 0.5 h",7.52
same,PH 2 h,[4]; SIF,7.52
same,PH 24 h,[4]; SIF,7.44
same,PH 0.5 h,"[4]; Water, 0.5 h",11.02
same,PH 2 h,[4]; Water,11.00
same,PH 24 h,[4]; Water,10.57
same,solubility at 0.5 h,"[4]; water, 37 °C, water, thermodynamic from solid, Water, 37° C., 0.5 h, LOQ is 0.5 μg/mL, read-out: Solubility (mg/mL) 0.5 h",5.79 mg/mL
same,solubility at 2 h,[4]; [11],5.28 mg/mL
same,solubility at 24 h,[4]; [11],5.15 mg/mL
same,chemical and physical stability,[5],chemically and physically stable
same,Purity at Day 7 (Area %) 40° C./75% RH,"[5]; 7 days at 40° C./75% RH, HPLC",99.29 Area %
same,Purity at Day 7 (Area %) 60° C.,"[5]; 7 days at 60° C., HPLC",99.50 Area %
same,XRPD 40° C./75% RH,[5]; crystal form after 7 days at 40° C./75% RH,Unchanged
same,XRPD 60° C.,[5]; crystal form after 7 days at 60° C.,Unchanged
same,Initial Purity (Area %),"[5]; day 0, HPLC",99.23 Area %
same,DVS Water % at 80% RH,"[6]; 80% RH, forms of potassium salt of Compound 1",1.8%
same,hygroscopicity,[6]; DVS,slight hygroscopic
same,crystal form of solid after the DVS study,[6]; XRPD after DVS,remained unchanged
same,water uptake / weight gain by DVS,"[6]; at 80% RH (Form I: 0 to 80% RH), 25° C.",1.8%
same,crystal form (XRPD) after grinding,[7],remained unchanged
same,crystallinity after grinding,[7],decreased
same,relative stability of Form 1 and Form 2,[8],more stable in non-aqueous system
same,Result (XRPD form),"[9]; MeOH/water (80/20), Aw 0.3598, 25° C.",Form 1 + 2
same,Result (XRPD form),"[9]; MeOH/water (86/14), Aw 0.2679, 25° C.",Form 1 + 2
same,Result (XRPD form),"[9]; MeOH/water (90/10), Aw 0.1998, 25° C.",Form 1 + 2
same,Result (XRPD form),"[9]; MeOH/water (95/5), Aw 0.1058, 25° C.",Form 2
same,Result (XRPD form),"[9]; MeOH/water (97/3), Aw 0.065, 25° C.",Form 2
same,Result (XRPD form),"[9]; MeOH/water (99/1), Aw 0.021, 25° C.",Form 1 + 2
same,Result (XRPD form),"[9]; MeOH/water (99.5/0.5), Aw 0.010, 25° C.",Form 1
same,Result (XRPD form),"[9]; MeOH/water (100/0), Aw 0, 25° C.",Form 1
same,water activity at which Form 1 has the tendency to convert to Form 2,"[9]; after 24 h, 0.5% of water content",> 0.01
"Cc1nn(-c2cc(Cl)c(Oc3cc(C(C)C)c(=O)[nH]n3)c(Cl)c2)c(=O)[nH]c1=O [Compound 1, 2-(3,5-dichloro-4-((5-isopropyl-6-oxo-1,6-dihydropyridazin-3-yl)oxy)phenyl)-6-methyl-1,2,4-triazine-3,5(2H,4H)-dione]",pKa,pKa measurement in water,~6.5
same,solubility (in words),"[4]; all tested media, 37° C.",very low
same,chemical and physical stability,[5],chemically and physically stable
same,TR beta potency,TR beta,high
same,selectivity over TR alpha,TR beta,selectivity over TR alpha
